Source: patent publication US20150232856A1, “TELOMERASE INHIBITORS FOR USE IN THERAPY” (AGENCY FOR SCIENCE, TECHNOLOGY AND RESEARCH, priority 2012, published 2015)

What was measured:
Type in all cases: cell-based, human
NFκB gene expression = experiment: Relative mRNA expression in VA13 cells after TNFα (qPCR)
Procedure: VA13 cells were treated with 2 μM MST-312 or DMSO for 24 hrs followed by stimulation with 10 ng/ml TNFα for the indicated durations.
B. Relative mRNA expression levels of indicated genes after stimulation with TNFα for 1 hr.
(§1) Total RNA was isolated using RNeasy Kit (Qiagen) according to the manufacturer's instructions. cDNA was prepared from 1-2 μg of RNA Superscript Vilo reverse transcriptase (Invitrogen). Real-time PCR reactions were performed in duplicates using SYBR GreenER (Invitrogen) according to the manufacturer's instructions. Cycles for SYBR GreenER PCRs: 7.5 min at 95° C. for the initial denaturation, followed by 40 cycles of 95° C. for 15 s and 60° C. for 30 s. Primer sequences are set out in the following Table: […]

NFκB targets = experiment: TNFα induced expression of NFκB targets (quantitative PCR); conditions: 10 ng/ml TNFα 1 hr; MST-312 2 μM 48 hrs (FIG. 2F); siRNA 65 hrs (FIG. 2E)
Procedure: E. Cells were transfected with siRNA for hTERT (si-hTERT) or scrambled controls (si-Cntrl) as indicated. 65 hrs later cells were treated with 10 ng/ml TNFα for 1 hr followed by mRNA extraction and quantitative PCR. Levels of relative mRNA expression for the indicated genes are shown.
F. Cells were treated with 2 μM MST-312 or DMSO as indicated for 48 hrs. Cells were treated with 10 ng/ml TNF for 1 hr followed by mRNA extraction and quantitative PCR. Levels of relative mRNA expression for the indicated genes are shown.
as §1

IL6 = IL6 expression in primary leukemia cells from patients; conditions: primary leukemic cells from AML, ALL or CML patients; MST-312 0.5 μM 48 hours vs DMSO (FIG. 6G)
Procedure: G. IL6 expression in primary patient samples after treatment with 0.5μ MST-312 for 48 hrs. Expression levels are shown as percentage expression of IL6 in MST-312 treated samples compared to the matched DMSO treatment for each individual patient line (X-axis). ND—not detectable.
Total RNA was isolated using RNeasy Kit (Qiagen) according to the manufacturer's instructions. cDNA was prepared from 1-2 μg of RNA Superscript Vilo reverse transcriptase (Invitrogen). Real-time PCR reactions were performed in duplicates using SYBR GreenER (Invitrogen) according to the manufacturer's instructions. Cycles for SYBR GreenER PCRs: 7.5 min at 95° C. for the initial denaturation, followed by 40 cycles of 95° C. for 15 s and 60° C. for 30 s. Primer sequences are set out in the following Table:
Bone marrow blast cells (>90%) from newly diagnosed leukemia patients were obtained at National University Hospital in Singapore. Primary leukemia cells were cultured in IMDM with 10% of fetal bovine serum (FBS), FLT3 ligand (20 ng/ml), SCF (20 ng/ml), IL-3 (20 ng/ml), G-CSF (50 ng/ml), TPO (50 ng/ml) and 1% Penicillin/Streptomycin in a humid incubator with 5% CO2 at 37° C. All the human cytokines were purchased from Peprotech (Rocky Hill, N.J.). […]

## O=C(Nc1cccc(NC(=O)c2cccc(O)c2O)c1)c1cccc(O)c1O [MST-312, N,N′-1,3-Phenylenebis-[2,3-dihydroxy-benzamide]]
NFκB gene expression; VA13 cells, 2 μM MST-312 24 hrs, TNFα 1 hr (FIG. 12B)
  stimulus dependent NFκB gene expression: did not affect
NFκB gene expression; short term MST-312 treatment (FIG. 12B)
  levels of hTERT: did not cause changes
NFκB targets
  TNFα induced expression of NFκB targets: reduced
IL6
  samples in which the levels of IL6 were significantly reduced: more than 80%
